From ChEMBL document CHEMBL4261560, “Structure-optimized dihydropyranoindole derivative GIBH-LRA002 potentially reactivated viral latency in primary CD4+ T lymphocytes of chronic HIV-1 patients” (Medchemcomm, 2017) come the findings set out here.

The test system of series [1] is Human immunodeficiency virus 1. Briefly: Reactivation of latent HIV1 LTR-GFP infected in human Jurkat-Lat A10.6 cells assessed as increase in GFP-positive cells after 24 hrs by flow cytometry relative to control. It is filed as functional. (In general: Flow cytometry measures light scatter and fluorescence of single cells or particles in a stream.)
The nature of series [2]: Cytotoxicity against human J-Lat cells. It is filed as cell-based.
Series [3] is described as follows: Cytotoxicity against human J-Lat cells at 100 uM. It is filed as cell-based.
The test system of series [4] is Human immunodeficiency virus 1. Briefly: Reactivation of latent HIV1 LTR-GFP infected in human Jurkat-Lat A10.6 cells assessed as GFP-positive cells at 10 uM after 24 hrs by flow cytometry (reference value: 5.06%). In kind it is functional.
Series [5] has as its system Human immunodeficiency virus 1. Description: Reactivation of latent HIV1 LTR-GFP infected in human Jurkat-Lat A10.6 cells assessed as GFP-positive cells at 100 uM after 24 hrs by flow cytometry (reference value: 5.06%). In kind it is functional.
The next series relates to PBMC. Briefly: Cytotoxicity against PBMC (unknown origin) assessed as reduction in cell viability up to 500 uM by CCK8 assay. In kind it is cell-based. (In general: Tetrazolium assays rely on reduction of a dye to a coloured formazan, in cell work by metabolically active cells.)
Series [6] concerns Simian immunodeficiency virus. Briefly: Reactivation of Simian immunodeficiency virus mac239 latent provirus in primary CD4+ T lymphocytes isolated from infected rhesus monkey PBMC assessed as increase in msRNA level after 24 hrs by RT-PCR analysis. It is filed as functional, organism-based.
Series [7] deals with Simian immunodeficiency virus. Description: Reactivation of Simian immunodeficiency virus mac239 latent provirus in primary CD4+ T lymphocytes isolated from infected rhesus monkey PBMC assessed as increase in usRNA level after 24 hrs by RT-PCR analysis. In kind it is functional, organism-based.
The subject of series [8] is Human immunodeficiency virus. Briefly: Reactivation of HIV latent provirus in primary CD4+ T lymphocytes isolated from infected human PBMC assessed as increase in msRNA level at 10 to 100 uM after 24 hrs by RT-PCR analysis. It is filed as functional, organism-based.
The subject of series [9] is Human immunodeficiency virus. Briefly: Reactivation of HIV latent provirus in primary CD4+ T lymphocytes isolated from infected human PBMC assessed as increase in usRNA level at 10 to 100 uM after 24 hrs by RT-PCR analysis. It is filed as functional, organism-based.
Series [10] has as its system T cell. Briefly: Induction of monkey PBMC CD4+ T cells activation assessed as increase in CD25 expression up to 500 uM after 24 hrs by flow cytometry. It is filed as cell-based, Macaca mulatta. The following applies: rhesus monkey.
Series [11] deals with T cell. Description: Induction of monkey PBMC CD4+ T cells activation assessed as increase in CD69 expression up to 500 uM after 24 hrs by flow cytometry. It is filed as cell-based, Macaca mulatta. To be noted: rhesus monkey.
For series [12], the system named is T cell. Briefly: Induction of monkey PBMC CD4+ T cells activation assessed as increase in CCR5 expression up to 500 uM after 24 hrs by flow cytometry. It is filed as cell-based, Macaca mulatta. To be noted: rhesus monkey.
The test system of series [13] is T cell. Description: Induction of monkey PBMC CD3+ T cells activation assessed as increase in CD25 expression up to 500 uM after 24 hrs by flow cytometry. To be noted: rhesus monkey. In kind it is cell-based, Macaca mulatta.
Series [14] deals with T cell. Description: Induction of monkey PBMC CD3+ T cells activation assessed as increase in CD69 expression up to 500 uM after 24 hrs by flow cytometry. The following applies: rhesus monkey. In kind it is cell-based, Macaca mulatta.
In series [15] the test system is T cell. Briefly: Induction of monkey PBMC CD3+ T cells activation assessed as increase in CCR5 expression up to 500 uM after 24 hrs by flow cytometry. In kind it is cell-based, Macaca mulatta. The following applies: rhesus monkey.
For series [16], the system named is Human immunodeficiency virus 1. Briefly: Reactivation of latent HIV1 LTR-GFP infected in human Jurkat-Lat A10.6 cells assessed as GFP-positive cells after 24 hrs by flow cytometry (reference value: 5.06%). In kind it is functional.
In series [17] the test system is Human immunodeficiency virus. Description: Reactivation of HIV latent provirus in primary CD4+ T lymphocytes isolated from infected human PBMC assessed as increase in msRNA level after 24 hrs by RT-PCR analysis. It is filed as functional, organism-based.
Series [18] deals with Human immunodeficiency virus. Description: Reactivation of HIV latent provirus in primary CD4+ T lymphocytes isolated from infected human PBMC assessed as increase in usRNA level after 24 hrs by RT-PCR analysis. In kind it is functional, organism-based.

The structures appear in SMILES notation. Active and inactive are the calls of the source. The rule behind the calls is not given here.

As to `COC(=O)C1(C(F)(F)F)C(C#N)=C(N)Oc2c1c1ccccc1n2C(=O)OC(C)(C)C` (configuration not stated), the results for the “fold change (FC)” value in [1] and in [2] were 2.1 and 2.6, respectively.
Taken in the same sequence, the figures for `CC(C)(C)OC(=O)n1c2c(c3ccccc31)C(C(F)(F)F)C(C#N)=C(N)O2` (configuration not stated) were 0.25 and 3.
Consider `CCOC(=O)C1(C(F)(F)F)C(C#N)=C(N)Oc2[nH]c3ccccc3c21` (configuration not stated), for which, in series [1], the “fold change (FC)” value is recorded as 2. Further, the Activity result in series [3] is “Toxic”.
Take `CCOC(=O)C1(C(F)(F)F)C(C#N)=C(N)Oc2c1c1ccccc1n2C(=O)OC(C)(C)C` (racemic): the “fold change (FC)” value came out at 2.6 in [1] and 1.8 in series [2].
Consider `CCOC(=O)[C@@]1(C(F)(F)F)C(C#N)=C(N)Oc2c1c1ccccc1n2C(=O)OC(C)(C)C`, for which the “fold change (FC)” value in [1] is listed as 1.5. In addition, the Activity result in [3] is “Toxic”.
In the case of `CCOC(=O)C1(C(F)(F)F)C(C#N)=C(N)Oc2c1c1ccccc1n2C` (configuration not stated), the “fold change (FC)” value turned out to be 4.4 in [1] and 1.3 in series [2]. Besides, the Activity in series [4] is 9.16%; in series [5], 23%; in the series with PBMC, “Non-Toxic”; in [6], “Dose-dependent effect”; in [7], “Dose-dependent effect”; in the series on T cell [10], “Non-Toxic”. The Activity result in the series with T cell [11], with T cell [12], in the series with T cell [13], with T cell [14] and in the series on T cell [15] was “Non-Toxic” each time. For the same molecule, the result in series [8] and in [9] was Active.
Take `CCCC(CCC)C(=O)O` [VALPROIC ACID]: the Activity in [16] came to 25.7%. Moreover, the outcome in series [6], in [7], in series [17] and in series [18] was inactive.
For the molecule `CCOC(=O)C1(C(F)(F)F)C(C#N)=C(N)Oc2c1c1ccccc1n2Cc1ccccc1` (configuration not stated), the “fold change (FC)” value in [1] worked out at 1.9. Further, the Activity result in series [3] was “Toxic”.
